From PubChem BioAssay AID330 (DTP/NCI, 2004)
Several values for one entry are separate records, joined by “and”; a condition that tells them apart may be missing. Equal values may be shown once. Toxic doses and inconclusive results are not listed. Rule for the calls: active = survival T/C of 150% or more; inactive = T/C below 125% in these data. Square brackets hold non-standard residues; d marks the D form. Peptide text beside a SMILES is read from it. * marks the point of attachment. Cbz = O=C(OCc1ccccc1)*; Nva = CCC[CH](N)C(=O)O

Tested on: P388 leukemia ip, CD2F1 mice, survival T/C
Assay: NCI In Vivo Anticancer Drug Screen. Data for tumor model P388 Leukemia (intraperitoneal) in CD2F1 (CDF1) mice
Conditions: endpoint: median survival time, higher = longer survival
In short: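 Mice carrying the transplanted tumor received test compound or vehicle. Survival was recorded in each group, and the value is the treated-group measurement divided by that of the vehicle-treated control group.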

[1] = dose: 25.0 mg/kg/injection, schedule: Q01DX005 (ip), vehicle: saline with Tween-80
[2] = dose: 50.0 mg/kg/injection, schedule: Q01DX005 (ip), vehicle: saline with Tween-80
[3] = dose: 100.0 mg/kg/injection, schedule: Q01DX005 (ip), vehicle: saline with Tween-80
[4] = dose: 200.0 mg/kg/injection, schedule: Q01DX005 (ip), vehicle: saline with Tween-80
[5] = dose: 50.0 mg/kg/injection, schedule: Q01DX005 (ip), vehicle: Klucel (hydroxypropylcellulose) (HPC)
[6] = dose: 100.0 mg/kg/injection, schedule: Q01DX005 (ip), vehicle: Klucel (hydroxypropylcellulose) (HPC)
[7] = dose: 200.0 mg/kg/injection, schedule: Q01DX005 (ip), vehicle: Klucel (hydroxypropylcellulose) (HPC)
[8] = dose: 60.0 mg/kg/injection, schedule: Q01DX005 (ip), vehicle: Klucel (hydroxypropylcellulose) (HPC)
[9] = dose: 120.0 mg/kg/injection, schedule: Q01DX005 (ip), vehicle: Klucel (hydroxypropylcellulose) (HPC)
[10] = dose: 240.0 mg/kg/injection, schedule: Q01DX005 (ip), vehicle: Klucel (hydroxypropylcellulose) (HPC)
[11] = dose: 50.0 mg/kg/injection, schedule: Q01DX009 (ip), vehicle: Klucel (hydroxypropylcellulose) (HPC)
[12] = dose: 100.0 mg/kg/injection, schedule: Q01DX009 (ip), vehicle: Klucel (hydroxypropylcellulose) (HPC)
[13] = dose: 200.0 mg/kg/injection, schedule: Q01DX009 (ip), vehicle: Klucel (hydroxypropylcellulose) (HPC)
[14] = dose: 50.0 mg/kg/injection, schedule: Q01DX009 (ip), vehicle: saline
[15] = dose: 200.0 mg/kg/injection, schedule: Q01DX009 (ip), vehicle: saline
[16] = dose: 12.5 mg/kg/injection, schedule: Q01DX005 (ip), vehicle: saline with Tween-80

Measured: T/C

CCOC(=O)CCN(CC1CC=CCC1)c1cc(O)c2c(c1O)C(=O)c1ccccc1C2=O (stereo unspecified)
inactive: [1] 91 % of control | [2] 92 % of control | [3] 90 % of control | [4] 92 % of control

CCCCC(CC)CN1CN(CC(CC)CCCC)CC(C)(N)C1 (stereo unspecified)
inactive: [2] 100 % of control | [3] 98 % of control

N#CC(C#N)=C1c2ccccc2C(=O)c2ccccc21
inactive: [5] 88 % of control | [6] 88 % of control | [7] 92 % of control

CCN1C2=NCCN2S(=O)(=O)c2ccccc21
inactive: dose: 60.0 mg/kg/injection, schedule: Q01DX005 (ip), vehicle: saline with Tween-80 96 % of control | dose: 120.0 mg/kg/injection, schedule: Q01DX005 (ip), vehicle: saline with Tween-80 97 % of control | dose: 240.0 mg/kg/injection, schedule: Q01DX005 (ip), vehicle: saline with Tween-80 97 % of control

CCCCC1/C(=C/C(=O)c2ccccc2)Nc2ccccc2N1C(=O)c1ccccc1 (stereo unspecified)
inactive: [8] 97 % of control | [9] 89 % of control | [10] 90 % of control

CCN(CC)CCNC
inactive: dose: 50.0 mg/kg/injection, schedule: Q01DX005 (ip), vehicle: saline 99 % of control | dose: 100.0 mg/kg/injection, schedule: Q01DX005 (ip), vehicle: saline 95 % of control | dose: 200.0 mg/kg/injection, schedule: Q01DX005 (ip), vehicle: saline 98 % of control

CCCC(NC(=O)OCc1ccccc1)C(=O)NC(CCSC)C(N)=O (stereo unspecified) (Cbz-[Nva]-Met-NH2; configuration not given here)
inactive: [5] 106 % of control | [6] 97 % of control | [7] 88 % of control

Cc1ccc(N=Cc2ccc(C=Nc3ccc(C)c(Cl)c3)cc2)cc1Cl
inactive: [11] 92 % of control | [12] 91 % of control | [13] 100 % of control

Cc1cc2nc3[nH]c4ccccc4c3nc2cc1C
inactive: dose: 25.0 mg/kg/injection, schedule: Q01DX009 (ip), vehicle: suspension in saline 94 % of control | dose: 50.0 mg/kg/injection, schedule: Q01DX009 (ip), vehicle: suspension in saline 92 % of control | dose: 100.0 mg/kg/injection, schedule: Q01DX009 (ip), vehicle: suspension in saline 94 % of control | dose: 200.0 mg/kg/injection, schedule: Q01DX009 (ip), vehicle: suspension in saline 92 % of control

COc1cc(C=O)cc(Br)c1O
inactive: dose: 25.0 mg/kg/injection, schedule: Q01DX009 (ip), vehicle: Klucel (hydroxypropylcellulose) (HPC) 108 % of control | [11] 108 % of control | [12] 108 % of control | [13] 105 % of control

CCOC(=O)c1[nH]cc(C)c1-c1ccc(OCc2ccccc2)cc1
inactive: dose: 100.0 mg/kg/injection, schedule: Q01DX001 (ip), vehicle: saline with Tween-80 112 % of control | dose: 200.0 mg/kg/injection, schedule: Q01DX001 (ip), vehicle: saline with Tween-80 94 % of control | dose: 400.0 mg/kg/injection, schedule: Q01DX001 (ip), vehicle: saline with Tween-80 103 % of control

Cc1ccc(-n2c(N)c(C#N)c3c(c2=S)CCC3)cc1
inactive: dose: 50.0 mg/kg/injection, schedule: Q01DX005 (ip), vehicle: Klucel + Tween-80 100 % of control | dose: 100.0 mg/kg/injection, schedule: Q01DX005 (ip), vehicle: Klucel + Tween-80 107 % of control | dose: 200.0 mg/kg/injection, schedule: Q01DX005 (ip), vehicle: Klucel + Tween-80 96 % of control

CCOC(=O)Nc1cc(Cl)c2[nH]c(=O)[nH]c2n1
inactive: dose: 12.5 mg/kg/injection, schedule: Q01DX009 (ip), vehicle: other 103 % of control | dose: 25.0 mg/kg/injection, schedule: Q01DX009 (ip), vehicle: other 106 % of control | dose: 50.0 mg/kg/injection, schedule: Q01DX009 (ip), vehicle: other 100 % of control | dose: 100.0 mg/kg/injection, schedule: Q01DX009 (ip), vehicle: other 104 % of control | dose: 200.0 mg/kg/injection, schedule: Q01DX009 (ip), vehicle: other 100 % of control

NC(=S)c1ccc(C=Nc2ccc(I)cc2)cc1
inactive: dose: 25.0 mg/kg/injection, schedule: Q01DX001 (ip), vehicle: Klucel (hydroxypropylcellulose) (HPC) 93 % of control | dose: 50.0 mg/kg/injection, schedule: Q01DX001 (ip), vehicle: Klucel (hydroxypropylcellulose) (HPC) 102 % of control | dose: 100.0 mg/kg/injection, schedule: Q01DX001 (ip), vehicle: Klucel (hydroxypropylcellulose) (HPC) 100 % of control

CC(C)c1nc(N)nc(N)n1
inactive: [14] 93 % of control | [15] 90 % of control

COc1ccc(C(C2C(=O)CC(C)(C)CC2=O)C2C(=O)CC(C)(C)CC2=O)cc1
inactive: [5] 104 % of control | [6] 101 % of control | [7] 106 % of control

CC(=O)OCN1C(=O)N(COC(C)=O)C(c2ccccc2)(c2ccccc2)C1=O
inactive: [8] 104 % of control | [9] 105 % of control | [10] 103 % of control

Brc1cc2ccccc2c2ccccc12
inactive: dose: 50.0 mg/kg/injection, schedule: Q01DX009 (ip), vehicle: saline with Tween-80 99 % of control | dose: 100.0 mg/kg/injection, schedule: Q01DX009 (ip), vehicle: saline with Tween-80 99 % of control | dose: 200.0 mg/kg/injection, schedule: Q01DX009 (ip), vehicle: saline with Tween-80 93 % of control | dose: 400.0 mg/kg/injection, schedule: Q01DX009 (ip), vehicle: saline with Tween-80 93 % of control

C=C1C(C2(C)C(OC(C)=O)CC(=O)OC3(C)COC(=O)CC32)C(OC=O)C(OC(=O)CC(C)C)C2(C)C(c3ccoc3)CC(=O)C12O (stereo unspecified)
inactive: dose: 0.25 mg/kg/injection, schedule: Q01DX009 (ip), vehicle: Klucel (hydroxypropylcellulose) (HPC) 88 % of control | dose: 0.5 mg/kg/injection, schedule: Q01DX009 (ip), vehicle: Klucel (hydroxypropylcellulose) (HPC) 91 % of control | dose: 1.0 mg/kg/injection, schedule: Q01DX009 (ip), vehicle: Klucel (hydroxypropylcellulose) (HPC) 88 % of control | dose: 2.0 mg/kg/injection, schedule: Q01DX009 (ip), vehicle: Klucel (hydroxypropylcellulose) (HPC) 97 % of control

NS(=O)(=O)c1nc2nc[nH]c(=O)c2[nH]1
inactive: [2] 100 % of control | [3] 106 % of control | [4] 101 % of control

COc1ccc(C(=O)Nc2c(O)ccc3ccccc23)cc1OC
inactive: [2] 101 % of control | [3] 97 % of control | [4] 100 % of control

CCOC(=O)c1cc2c(=O)c3c(ccc4ccccc43)oc2n(C)c1=O
inactive: [16] 96 % of control | [1] 94 % of control | [2] 88 % of control

CN(C)CCNC(=O)c1ccc(C(=O)NCCN(C)C)c2c(C(=O)NCCN(C)C)ccc(C(=O)NCCN(C)C)c12
inactive: dose: 1.56 mg/kg/injection, schedule: Q01DX005 (ip), vehicle: saline with Tween-80 100 % of control | dose: 3.13 mg/kg/injection, schedule: Q01DX005 (ip), vehicle: saline with Tween-80 106 % of control | dose: 6.25 mg/kg/injection, schedule: Q01DX005 (ip), vehicle: saline with Tween-80 102 % of control and 109 % of control | [16] 108 % of control

CCOCC(=O)N[C@H]1CCc2cc(OC)c(OC)c(OC)c2-c2ccc(OC)c(=O)cc21
active: dose: 0.31 mg/kg/injection, schedule: Q01DX009 (ip), vehicle: water 150 % of control | dose: 0.63 mg/kg/injection, schedule: Q01DX009 (ip), vehicle: water 171 % of control | dose: 1.25 mg/kg/injection, schedule: Q01DX009 (ip), vehicle: water 198 % of control and 221 % of control

CCOC(=O)CS(=O)(=O)CCCCCCS(=O)(=O)CC(=O)OCC
inactive: [14] 103 % of control | dose: 100.0 mg/kg/injection, schedule: Q01DX009 (ip), vehicle: saline 91 % of control | [15] 94 % of control

Cn1c2ccccc2c2nnc(N/N=C/c3ccncc3)nc21
inactive: dose: 100.0 mg/kg/injection, schedule: Q04DX002 (ip), vehicle: saline with Tween-80 88 % of control | dose: 200.0 mg/kg/injection, schedule: Q04DX002 (ip), vehicle: saline with Tween-80 88 % of control | dose: 400.0 mg/kg/injection, schedule: Q04DX002 (ip), vehicle: saline with Tween-80 99 % of control and 100 % of control

COc1cc(/C=N/Nc2ccc([N+](=O)[O-])cc2)cc(OC)c1OC
inactive: dose: 100.0 mg/kg/injection, schedule: Q04DX003 (ip), vehicle: saline with Tween-80 95 % of control | dose: 400.0 mg/kg/injection, schedule: Q04DX003 (ip), vehicle: saline with Tween-80 87 % of control
